Where a name gives a salt, the structure may show the parent alone. Read-outs that look alike come from different tables or passages of the source. A value given as a limit tells only on which side of the number the result lay.

One series relates to morphine-pelleted mice. In words: opioid withdrawal study in morphine-pelleted mice. The conditions noted are these: for withdrawal symptoms (wet-dog shakes, escape jumps, paw tremors): 1 mg/kg s.c., compared to 1 mg/kg NLX.
The subject of series [1] is male Swiss Webster mice. The conditions noted are these: reference compounds, literature / previous studies; cited from earlier work.
Series [2] concerns the target T1, MOR (Mus musculus, UniProt P42866). Kind of series: MOR [35S]GTPγS functional assay (MOR-CHO membranes). Type of series: biochemical. On the set-up: expressed in transfected cells; host or cells: CHO. The conditions noted are these: read-out: MOR [35S]GTPγS Binding % Emax of DAMGO. How it is done: The [^35S]GTPγS functional assay was conducted to determine the efficacy of the compounds at the MOR. […] The Bradford protein assay was utilized to determine and adjust the concentration of protein required for the assay. Nonspecific binding was determined with 20 μM unlabeled GTPγS. Furthermore, 3 μM DAMGO was included in the assay as the maximally effective concentration of a full agonist for the MOR. After incubation, the bound radioactive ligand was separated from the free radioligand by filtration through a GF/B glass fiber filter paper and rinsed three times with ice-cold wash buffer (50 mM Tris-HCl, pH 7.2) using the Brandel harvester. Bound radioactivity was determined by liquid scintillation counting. All assays were determined in duplicate and repeated at least three times. Net stimulated [^35S]GTPγS binding was defined as agonist-stimulated minus basal binding in the absence of agonist. Percent of DAMGO-stimulated [^35S]GTPγS binding was defined as (net-stimulated binding by ligand/net-stimulated binding by 3 μM DAMGO)×100%.
Results were reported as mean values ±SEM.
The [^35S]-GTPγS binding assay was carried out as well to determine the functionality on the MOR of each compound. […] The [^35S]GTPγS functional assay was conducted to determine the efficacy of the compounds at the MOR, KOR and DOR. […] The Bradford protein assay was utilized to determine and adjust the concentration of protein required for the assay. Nonspecific binding was determined with 20 μM unlabeled GTPγS. Furthermore, 3 μM DAMGO/U50488H/SNC80 was included in the assay as the maximally effective concentration of a full agonist for the MOR/KOR/DOR. After incubation, the bound radioactive ligand was separated from the free radioligand by filtration through a GF/B glass fiber filter paper using a Brandel harvester. Bound radioactivity was determined by liquid scintillation counting. All assays were determined in duplicate and repeated at least three times. Net stimulated [^35S]GTPγS binding was defined as agonist-stimulated minus basal binding in the absence of agonist. Percent of DAMGO/U50488H/SNC80 stimulated [^35S]GTPγS binding was defined as (net-stimulated binding by ligand/net-stimulated binding by 3 μM DAMGO U50488H/SNC80)×100%.
For orientation: GTPγS resists hydrolysis and so accumulates on activated G proteins.

Another series relates to mice. In words: carmine red dye study (GI tract motility, morphine-induced constipation).
Another series has as its target T2, DOR (Homo sapiens, UniProt P41143).
T2 construct: expressed in transfected cells; host or cells: CHO
Kind of series: competitive radioligand binding assay, DOR ([3H]diprenorphine, CHO cell membranes). The following applies: read-out: Ki (nM) DOR.

The conditions of series [3]: male rats, oral administration; cited from earlier work.
The target in series [4] is Human recombinant opioid receptors (MOR) (Homo sapiens, UniProt P35372). The following applies: read-out: MOR [35S]-GTPγS Binding EC50; MNTX, reported data; cited from earlier work.
In series [5] the target is Human recombinant opioid receptors (KOR) (Homo sapiens, UniProt P41145). The following applies: read-out: KOR [35S]-GTPγS binding EC50; MNTX, reported data; cited from earlier work.
Series [6] concerns the target T3, KOR (Mus musculus, UniProt P33534). In words: competitive radioligand binding assay, KOR ([3H]diprenorphine, CHO cell membranes). The conditions noted are these: read-out: Ki (nM) KOR. On the set-up: expressed in transfected cells; host or cells: CHO.
For series [7], the system named is male Swiss Webster mice. Kind of series: warm-water tail immersion (tail flick / tail-withdrawal) assay, antinociception. Format: in vivo, mouse. The following applies: Example 1 compounds; 10 mg/kg s.c., 20 min after injection. How it is done: In this assay, the duration for which mice kept their tails in the warm water was recorded.
All thirty-six compounds' antinociception were examined in tail immersion assay first to preclude any opioid receptor agonists.
Swiss Webster mice (six male mice for each group, 25-35 g, 6-8 weeks old) were used in this assay. Antinociception for all compounds was examined in male Swiss Webster mice. […] To prevent tissue damage, a 10 s maximum cutoff time was imposed. Antinociceptive response was calculated as the percentage of maximum possible effect (% MPE), where % MPE=[(test−control latency)/(10−control latency)]×100.
Warm-water tail immersion assay is a well-established assay for evaluating opioid analgesics, especially MOR agonists. […] In this context, all 24 compounds were first evaluated for their acute antinociception tail-withdrawal assay (FIG. 5A).
The tail-withdrawal test was performed using a water bath with the temperature maintained at 56±0.1° C. Baseline latency was measured before any injections. Each mouse was gently wrapped in a cloth with only the tail exposed. The distal one-third of the tail was immersed perpendicularly in water, and the mouse rapidly flicked the tail from the bath was seen as the first sign of discomfort. The duration of time the tail remained in the water bath was counted as the baseline latency. Untreated mice with baseline latency reaction times ranging from 2 to 4 seconds were used. Test latency was obtained 20 min later after each injection. A 10-second maximum cutoff latency was used to prevent any tissue damage. Antinociception was quantified as the percentage of maximal possible effect (% MPE), which was calculated as % MPE=[(test latency−control latency)/(10−control latency)]×100. The % MPE value was calculated for each mouse using 6 mice per group. Testing compounds were given 10 mg/kg (s.c.) to each mouse.

The target of series [8] is T1, MOR. The following applies: read-out: Ki (nM) MOR; Example 1 compounds (Tables 1, 2).
Series [9] deals with T3, KOR. The following applies: read-out: Ki (nM) KOR; reference data adopted from literature; cited from earlier work.
Setting [10] is: Example 1 compounds (Tables 1, 2).

Consider `C=CCN1CC[C@]23c4c5ccc(O)c4O[C@H]2C(=O)CC[C@@]3(O)[C@H]1C5` [NLX, naloxone, reference compound], for which the “withdrawal symptoms (wet-dog shakes, escape jumps, paw tremors)” value with morphine-pelleted mice is “precipitated withdrawal symptoms”. Moreover, in the series with male Swiss Webster mice [1], the “AD50 mg/kg (95% CL) to antagonize morphine mediated antinociception” value was 0.05 mg/kg.

By Emax is commonly meant the maximal effect, on the per cent scale that the assay sets. As to `O=C(CCc1cccs1)N[C@H]1CC[C@@]2(O)[C@H]3Cc4ccc(O)c5c4[C@@]2(CCN3CC2CC2)[C@H]1O5` [Example 1 compound 29, 17-Cyclopropylmethyl-3,14β-dihydroxy-4,5α-epoxy-6α-[3′-(thiophen-2″yl)propanamido]morphinan hydrochloride], the maximal effect (Emax) on MOR [2] amounted to 43.7 ± 1.71%.

For `CN1CC[C@]23c4c5ccc(O)c4O[C@H]2[C@@H](O)C=C[C@H]3[C@H]1C5` [morphine], the “elongation of pellet defecation time compared to naïve group” value with mice (morphine 10 mg/kg s.c.) worked out at 124 min.

By Ki is commonly meant a dissociation constant, usually derived from enzyme kinetics or from competition with a known ligand. “17-Cyclopropylmethyl-3,14β-dihydroxy-4,5α-epoxy-6β-(2′-thienylacetamido)morphinan hydrochloride [Example 1 compound 28]”: the Ki at DOR (setting [10]) turned out to be 64.9 ± 2.38 nM.

By EC50 is commonly meant the concentration at which the effect is half-maximal. Regarding `C[N@+]1(CC2CC2)CC[C@]23c4c5ccc(O)c4O[C@H]2C(=O)CC[C@@]3(O)[C@H]1C5` [MNTX, methylnaltrexone], the oral bioavailability in series [3] is less than 1%. The EC50 in series [4] and in [5] was greater than 10000 nM in each case. In addition, the “blockage of GI motility inhibition by morphine (in words)” value with mice (10 mg/kg oral gavage, morphine 5 mg/kg) is given as “no blockage was observed”.

Turning to `O=C(Cc1ccsc1)N[C@@H]1CC[C@@]2(O)[C@H]3Cc4ccc(O)c5c4[C@@]2(CCN3CC2CC2)[C@H]1O5` [Example 1 compound 34, 17-Cyclopropylmethyl-3,14β-dihydroxy-4,5α-epoxy-6β-(3′-thienylacetamido)morphinan hydrochloride], the maximum response (Emax) at MOR [2] was determined as 26.5 ± 3.17%.

In the case of `O=C(Cc1ccsc1)N[C@H]1CC[C@@]2(O)[C@H]3Cc4ccc(O)c5c4[C@@]2(CCN3CC2CC2)[C@H]1O5` [Example 1 compound 33, 17-Cyclopropylmethyl-3,14β-dihydroxy-4,5α-epoxy-6α-(3′-thienylacetamido)morphinan hydrochloride], the Emax at MOR [2] was 28.6 ± 1.15%.

For `Cl.O=C(CCc1cccs1)N[C@@H]1CC[C@@]2(O)[C@H]3Cc4ccc(O)c5c4[C@@]2(CCN3CC2CC2)[C@H]1O5` [Example 1 compound 30, 17-Cyclopropylmethyl-3,14β-dihydroxy-4,5α-epoxy-6β-[3′-(thiophen-2 yl)propanamido]morphinan hydrochloride], the Ki at KOR [6] is 0.23 ± 0.02 nM; on DOR, 4.87 ± 1.19 nM; at MOR [8], 0.26 ± 0.01 nM. Further, the “antinociceptive effect (% MPE, in words)” value in the series with male Swiss Webster mice [7] is reported as “exhibited antinociception”.

On to `O=C(N[C@@H]1CC[C@@]2(O)[C@H]3Cc4ccc(O)c5c4[C@@]2(CCN3CC2CC2)[C@H]1O5)c1cccs1` [Example 1 compound 26, 17-Cyclopropylmethyl-3,14β-dihydroxy-4,5α-epoxy-6β-(2′-thienylcarboxamido)morphinan hydrochloride], for which, in the series with morphine-pelleted mice, the “withdrawal symptoms (wet-dog shakes, escape jumps, paw tremors)” value is “significantly fewer wet-dog shakes, escape jumps, and paw tremors”. The “withdrawal symptoms at higher doses” value with morphine-pelleted mice (5 mg/kg and above, s.c.) is reported as “did not precipitate significant withdrawal symptoms at doses as high as 10 times that of NLX”.

Regarding “17-Cyclopropylmethyl-3,14β-dihydroxy-4,5α-epoxy-6α-(2′-thienylacetamido)morphinan hydrochloride [Example 1 compound 27]”, the Ki at DOR (setting [10]) came out at 6.92 ± 1.63 nM.

Take `O=C(NC1CCC2(O)C3Cc4ccc(O)c5c4C2(CCN3CC2CC2)C1O5)c1ccncc1` (stereo not drawn) [NAP, 17-cyclopropylmethyl-3,14-dihydroxy-4,5α-epoxy-6β-[(4′-pyridyl)carboxamido]morphinan]: the Ki on KOR [9] was 278 ± 8 nM.

For the compound `O=C(N[C@@H]1CC[C@@]2(O)[C@H]3Cc4ccc(O)c5c4C2(CCN3CC2CC2)[C@H]1O5)c1ccncc1F` [NFP], the “AD50 mg/kg (95% CL) to antagonize morphine mediated antinociception” value in the series with male Swiss Webster mice [1] is reported as 2.82 mg/kg.
